According to patent US20240317777A1, “NOVEL MACROCYCLIC AMINOPYRAZOLE COMPOUNDS AS CDK2 INHIBITORS” (Accutar Biotechnology Inc., priority 2023, published 2024):
Read-outs that look alike come from different tables or passages of the source.

Legend:
[1] = biological target: CDK9-CYCLIN T1 (Homo sapiens, UniProt P50750); assay: CDK protein kinase inhibition by ADP-Glo assay, CDK9-CYCLIN T1; type: biochemical; conditions: for IC50: ADP-Glo, 1000 μM ATP, read-out: CDK9-CYCLINT1, IC50; for CDK2 Fold Sensitivity, CDK9: Table 8
Protocol: (§1) CDK Protein Kinase Inhibition by ADP-Glo Assay
(§2) This ADP-Glo assay measures ADP formed from a kinase reaction and indirectly quantifies the phosphorylation of peptide substrates by the CDK/cyclin protein complexes. The typical assays were carried out in Nanosyn by combining kinase/cyclin complexes, substrates, compounds, and cofactors (ATP and Mg2+) in a well of a 384-well microtiter plate (Corning 3824) and incubating at 22° C. (Table 1). At the end of the incubation, the reaction is quenched, and conversion is detected by luminescence using the Promega ADP-Glo™ Kinase Assay kit (catalog #V9102).
(§3) Final assay buffer mixture contains: • 100 mM HEPES, pH 7.5 • 0.1% BSA • 0.01% Triton X-100 • 1 mM DTT • 5 mM MgCl2 • 10 μM Sodium Orthovanadate • 100 μM Beta-Glycerophosphate • 1000 μM Ultra Pure ATP (provided in the Promega ADP-Glo™ Kinase Assay kit) • 1% DMSO (from compound)
(§4) Upon completion, 5 μL of the ADP Glo reagent was added to each well and the plate was further incubated at room temperature for 45 minutes. 10 uL of the Kinase Detection Reagent was subsequently added to each well. After 10 minutes of incubation, the plate was read and analyzed on the BioTek Synergy microplate reader using BioTek Gen5 software.

[2] = biological target: CDK6-CYCLIN D3 (Homo sapiens, UniProt Q00534); assay: CDK protein kinase inhibition by ADP-Glo assay, CDK6-CYCLIN D3; type: biochemical; conditions: for IC50: ADP-Glo, 1000 μM ATP, read-out: CDK6-CYCLIND3, IC50; for CDK2 Fold Sensitivity, CDK6: Table 8
Protocol: as §1, §2, §3, §4

[3] = system: CCNE1-amplified OVCAR3 cells; assay: Cell growth inhibition of CCNE1-amplified OVCAR3 cells (CellTiter-Glo); type: cell-based; conditions: Homo sapiens, OVCAR-3, 144 h, 6 days
Procedure, shortened: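 Growth read-out was CellTiter-Glo luminescence, taken after 10 min at room temperature at the end of a 6-day compound exposure at 37 °C. Compounds were diluted from DMSO stocks across various concentrations.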

[4] = biological target: CDK2-CYCLIN E1 (Homo sapiens, UniProt P24941); assay: CDK protein kinase inhibition by ADP-Glo assay, CDK2-CYCLIN E1; type: biochemical; conditions: ADP-Glo, 1000 μM ATP, read-out: CDK2-CYCLINE, IC50
Protocol: as §1, §2, §3, §4

[5] = biological target: CDK4-CYCLIN D1 (Homo sapiens, UniProt P11802); assay: CDK protein kinase inhibition by ADP-Glo assay, CDK4-CYCLIN D1; type: biochemical; conditions: for IC50: ADP-Glo, 1000 μM ATP, read-out: CDK4-CYCLIND1, IC50; for CDK2 Fold Sensitivity, CDK4: Table 8
Protocol: as §1, §2, §3, §4

[6] = system: CCNE1-normal SKOV3 cells; assay: Cell growth inhibition of CCNE1-normal SKOV3 cells (CellTiter-Glo); type: cell-based; conditions: Homo sapiens, SK-OV-3, 144 h, 6 days
Procedure, shortened: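 Growth was measured by CellTiter-Glo luminescence after 6 days' compound exposure at 37 °C. Cells were plated one day before dosing at 1000 per well in medium with 10% FBS, and compounds were diluted from DMSO stocks.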

[7] = system: Phospho-Rb (Ser807/811) in OVCAR3 cells; assay: Phospho-Rb expression inhibition in OVCAR3 cells quantified by In Cell Western; type: cell-based; conditions: Homo sapiens, OVCAR-3, 24 hours, read-out: OVCAR-3 pRb IC50
Procedure, shortened: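 In-cell western: after 24 h compound exposure at 37° C, fixed OVCAR3 cells co-stained for pRb Ser807/811 (800 nm channel) and total Rb (680 nm channel), imaged by LI-COR Odyssey.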

[8] = biological target: CDK1-CYCLIN B (Homo sapiens, UniProt P06493); assay: CDK protein kinase inhibition by ADP-Glo assay, CDK1-CYCLIN B; type: biochemical; conditions: for IC50: ADP-Glo, 1000 μM ATP, read-out: CDK1-CYCLINB, IC50; for CDK2 fold selectivity over CDK1: Table 8
Protocol: as §1, §2, §3, §4

CDK1-CYCLIN B, sequence (P06493 whole entry): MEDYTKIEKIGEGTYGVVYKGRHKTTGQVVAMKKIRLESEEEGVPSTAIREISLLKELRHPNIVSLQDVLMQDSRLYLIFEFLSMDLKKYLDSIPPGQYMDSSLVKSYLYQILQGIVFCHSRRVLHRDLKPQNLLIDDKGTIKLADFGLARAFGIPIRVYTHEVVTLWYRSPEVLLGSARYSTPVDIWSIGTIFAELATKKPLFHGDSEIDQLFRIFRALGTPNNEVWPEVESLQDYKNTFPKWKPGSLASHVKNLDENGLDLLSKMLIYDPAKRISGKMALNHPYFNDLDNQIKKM
CDK1-CYCLIN B, sequence (P14635 whole entry partner): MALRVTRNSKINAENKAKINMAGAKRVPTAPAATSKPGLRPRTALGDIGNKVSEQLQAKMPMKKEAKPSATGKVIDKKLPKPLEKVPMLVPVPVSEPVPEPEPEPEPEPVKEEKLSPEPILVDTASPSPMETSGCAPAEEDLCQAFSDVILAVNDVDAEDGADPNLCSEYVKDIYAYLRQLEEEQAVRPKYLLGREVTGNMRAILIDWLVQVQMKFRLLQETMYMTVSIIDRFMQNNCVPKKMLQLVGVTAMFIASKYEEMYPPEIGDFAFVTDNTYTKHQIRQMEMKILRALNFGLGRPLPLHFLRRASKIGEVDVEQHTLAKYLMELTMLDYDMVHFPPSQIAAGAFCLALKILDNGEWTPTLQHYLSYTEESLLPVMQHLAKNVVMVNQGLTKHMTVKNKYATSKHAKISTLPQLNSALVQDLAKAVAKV
CDK9-CYCLIN T1, sequence (P50750 whole entry): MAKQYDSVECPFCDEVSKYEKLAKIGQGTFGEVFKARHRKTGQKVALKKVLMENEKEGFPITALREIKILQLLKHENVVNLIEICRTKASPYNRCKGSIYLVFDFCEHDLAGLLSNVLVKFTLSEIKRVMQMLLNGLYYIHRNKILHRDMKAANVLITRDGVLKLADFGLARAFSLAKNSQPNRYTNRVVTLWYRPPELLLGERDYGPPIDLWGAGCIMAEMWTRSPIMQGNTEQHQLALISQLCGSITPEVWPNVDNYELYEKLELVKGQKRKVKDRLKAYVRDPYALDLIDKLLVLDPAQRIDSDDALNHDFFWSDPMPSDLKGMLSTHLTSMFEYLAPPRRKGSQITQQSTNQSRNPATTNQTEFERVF
CDK9-CYCLIN T1, sequence (O60563 whole entry partner): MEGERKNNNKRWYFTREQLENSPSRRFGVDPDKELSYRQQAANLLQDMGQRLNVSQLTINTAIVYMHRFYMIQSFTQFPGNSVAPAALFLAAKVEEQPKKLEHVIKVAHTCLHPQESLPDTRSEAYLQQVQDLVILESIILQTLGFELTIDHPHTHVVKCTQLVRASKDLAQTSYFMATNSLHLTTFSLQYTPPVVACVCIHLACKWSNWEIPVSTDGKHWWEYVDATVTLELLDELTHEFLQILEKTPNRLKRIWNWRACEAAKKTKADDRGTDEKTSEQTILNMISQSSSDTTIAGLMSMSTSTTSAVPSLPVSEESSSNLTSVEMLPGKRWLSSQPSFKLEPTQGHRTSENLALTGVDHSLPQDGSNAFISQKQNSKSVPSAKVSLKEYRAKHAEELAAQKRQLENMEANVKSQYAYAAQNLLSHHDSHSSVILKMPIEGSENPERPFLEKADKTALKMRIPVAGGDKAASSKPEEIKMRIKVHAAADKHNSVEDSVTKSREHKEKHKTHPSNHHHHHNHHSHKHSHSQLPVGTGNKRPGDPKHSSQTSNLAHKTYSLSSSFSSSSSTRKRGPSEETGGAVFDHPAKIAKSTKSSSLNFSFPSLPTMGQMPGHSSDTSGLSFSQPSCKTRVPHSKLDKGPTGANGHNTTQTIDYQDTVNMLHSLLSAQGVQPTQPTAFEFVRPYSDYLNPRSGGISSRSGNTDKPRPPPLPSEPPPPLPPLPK
CDK4-CYCLIN D1, sequence (P11802 whole entry): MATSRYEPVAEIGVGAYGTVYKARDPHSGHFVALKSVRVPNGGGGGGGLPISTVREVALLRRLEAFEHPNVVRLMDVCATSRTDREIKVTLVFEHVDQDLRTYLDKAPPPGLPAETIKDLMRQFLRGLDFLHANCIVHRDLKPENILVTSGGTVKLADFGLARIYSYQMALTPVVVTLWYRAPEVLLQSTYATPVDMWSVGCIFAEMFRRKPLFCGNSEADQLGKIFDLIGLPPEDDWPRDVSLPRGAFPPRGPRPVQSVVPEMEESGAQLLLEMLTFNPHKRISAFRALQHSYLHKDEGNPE
CDK4-CYCLIN D1, sequence (P24385 whole entry partner): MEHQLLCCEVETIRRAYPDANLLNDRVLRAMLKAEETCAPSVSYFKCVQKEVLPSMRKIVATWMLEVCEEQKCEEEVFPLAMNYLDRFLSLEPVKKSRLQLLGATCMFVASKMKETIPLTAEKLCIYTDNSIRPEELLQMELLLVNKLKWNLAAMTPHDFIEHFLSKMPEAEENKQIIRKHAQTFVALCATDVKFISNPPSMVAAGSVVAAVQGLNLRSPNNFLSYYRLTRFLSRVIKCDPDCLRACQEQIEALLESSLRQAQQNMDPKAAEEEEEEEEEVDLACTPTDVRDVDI
CDK6-CYCLIN D3, sequence (Q00534 whole entry): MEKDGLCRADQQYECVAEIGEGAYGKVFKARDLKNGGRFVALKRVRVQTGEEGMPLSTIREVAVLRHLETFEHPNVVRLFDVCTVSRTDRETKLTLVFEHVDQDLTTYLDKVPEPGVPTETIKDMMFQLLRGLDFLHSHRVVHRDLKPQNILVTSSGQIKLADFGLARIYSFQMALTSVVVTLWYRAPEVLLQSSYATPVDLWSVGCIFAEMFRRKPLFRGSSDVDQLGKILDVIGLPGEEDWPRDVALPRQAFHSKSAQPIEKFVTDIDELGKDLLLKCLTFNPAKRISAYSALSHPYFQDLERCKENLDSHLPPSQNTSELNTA
CDK6-CYCLIN D3, sequence (P30281 whole entry partner): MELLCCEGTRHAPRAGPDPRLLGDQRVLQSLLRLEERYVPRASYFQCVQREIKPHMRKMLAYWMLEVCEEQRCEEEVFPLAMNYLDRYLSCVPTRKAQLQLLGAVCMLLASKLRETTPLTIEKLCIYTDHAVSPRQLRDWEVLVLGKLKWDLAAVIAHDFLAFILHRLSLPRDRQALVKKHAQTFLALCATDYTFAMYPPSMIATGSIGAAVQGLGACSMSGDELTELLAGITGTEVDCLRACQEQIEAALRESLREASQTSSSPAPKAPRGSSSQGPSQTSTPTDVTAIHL

| SMILES | IC50 ([1]; Table 7) [nM] | CDK2 Fold Sensitivity, CDK9 ([1]; CDK2 versus CDK9) | IC50 ([2]; Table 7) [nM] | CDK2 Fold Sensitivity, CDK6 ([2]; CDK2 versus CDK6) | IC50 [3] [nM] | IC50 ([4]; Table 7) [nM] | IC50 ([5]; Table 7) [nM] | CDK2 Fold Sensitivity, CDK4 ([5]; CDK2 versus CDK4) | IC50 [6] [nM] | IC50 [7] [nM] | IC50 ([8]; Table 7) [nM] | CDK2 fold selectivity over CDK1 ([8]; CDK2 versus CDK1) | further results |
| --- | --- | --- | --- | --- | --- | --- | --- | --- | --- | --- | --- | --- | --- |
| O=C1NCCCCCc2cc(ccn2)Nc2cc([nH]n2)[C@H]2CC[C@H](C2)O1 [Compound 4, (1^1S,1^3R,Z)-2^1H-12-oxa-3,10-diaza-4(4,2)-pyridina-2(3,5)-pyrazola-1(1,3)-cyclopentanacyclododecaphan-11-one] | 100 to 500 | D (D, >20 and ≤50) | 50 to 100 | E (E, <20) | 50 to 250 | ≤ 10 | 50 to 100 | E (E, <20) | 250 to 1250 | 10 to 50 | 100 to 500 | D (D, >20 and ≤50) |  |
| C[C@H]1CCCOc2cc(ccn2)Nc2cc([nH]n2)[C@H]2CC[C@H](C2)OC(=O)N1 [Compound 9, (1^1S,1^3R,9S,Z)-9-methyl-2^1H-5,12-dioxa-3,10-diaza-4(4,2)-pyridina-2(3,5)-pyrazola-1(1,3)-cyclopentanacyclododecaphan-11-one] | > 500 | B (B, >100 and ≤500) | > 500 | B (B, >100 and ≤500) | 10 to 50 | ≤ 10 | > 500 | B (B, >100 and ≤500) | > 1250 | 10 to 50 | 100 to 500 | C (C, >50 and ≤100) | IC50 ([1]; Table 29): > 500 nM; CDK2 Fold selectivity, CDK9 ([1]; CDK2 versus CDK9, Table 30): C (C, >50 and ≤100); IC50 ([2]; Table 29): > 500 nM; CDK2 Fold selectivity, CDK6 ([2]; CDK2 versus CDK6, Table 30): C (C, >50 and ≤100); IC50 ([4]; Table 29): 10 to 50 nM; IC50 ([5]; Table 29): > 500 nM; CDK2 Fold selectivity, CDK4 ([5]; CDK2 versus CDK4, Table 30): C (C, >50 and ≤100); IC50 ([8]; Table 29): 100 to 500 nM; CDK2 Fold selectivity, CDK1 ([8]; CDK2 versus CDK1, Table 30): E (E, <20) |
| C[C@@H]1CCCOc2cc(ccn2)Nc2cc([nH]n2)[C@H]2CC[C@H](C2)OC(=O)N1 [Compound 10, (1^1S,1^3R,9R,Z)-9-methyl-2^1H-5,12-dioxa-3,10-diaza-4(4,2)-pyridina-2(3,5)-pyrazola-1(1,3)-cyclopentanacyclododecaphan-11-one] | > 500 | B (B, >100 and ≤500) | 100 to 500 | C (C, >50 and ≤100) | 50 to 250 | ≤ 10 | 100 to 500 | C (C, >50 and ≤100) | > 1250 | 10 to 50 | 100 to 500 | D (D, >20 and ≤50) |  |
| CC1(C)CCCOc2cc(ccn2)Nc2cc([nH]n2)[C@H]2CC[C@H](C2)OC(=O)N1 [Compound 13, (1^1S,1^3R,Z)-9,9-dimethyl-2^1H-5,12-dioxa-3,10-diaza-4(4,2)-pyridina-2(3,5)-pyrazola-1(1,3)-cyclopentanacyclododecaphan-11-one] | 50 to 100 | C (C, >50 and ≤100) | 50 to 100 | D (D, >20 and ≤50) | 2 to 10 | ≤ 10 | 50 to 100 | C (C, >50 and ≤100) | 250 to 1250 | 2 to 10 | 10 to 50 | E (E, <20) |  |
| O=C1NCCCCOc2cc(cc(C(F)F)n2)Nc2cc([nH]n2)[C@H]2CC[C@H](C2)O1 [Compound 16, (1^1S,1^3R,Z)-46-(difluoromethyl)-2^1H-5,12-dioxa-3,10-diaza-4(4,2)-pyridina-2(5,3)-pyrazola-1(1,3)-cyclopentanacyclododecaphan-11-one] | > 500 | B (B, >100 and ≤500) | > 500 | B (B, >100 and ≤500) | 10 to 50 | ≤ 10 | > 500 | B (B, >100 and ≤500) | > 1250 | 10 to 50 | 50 to 100 | E (E, <20) |  |
